Reference: ChEMBL document CHEMBL4017466, “Efficient synthesis of a multi-substituted diphenylmethane skeleton as a steroid mimetic” (Bioorg Med Chem Lett, 2017)
Calls of active or inactive are those of the source. The rule behind the calls is not given here.

Columns and labels:
Estrogen receptor = biological target: T1, Estrogen receptor (Homo sapiens, UniProt P03372); experiment: Antagonist activity at CMX-GAL4N fused human ERalpha expressed in HEK293 cells assessed as reduction in E2 induced response by luciferase reporter gene assay; type: cell-based
T1 sequence (P03372 whole entry): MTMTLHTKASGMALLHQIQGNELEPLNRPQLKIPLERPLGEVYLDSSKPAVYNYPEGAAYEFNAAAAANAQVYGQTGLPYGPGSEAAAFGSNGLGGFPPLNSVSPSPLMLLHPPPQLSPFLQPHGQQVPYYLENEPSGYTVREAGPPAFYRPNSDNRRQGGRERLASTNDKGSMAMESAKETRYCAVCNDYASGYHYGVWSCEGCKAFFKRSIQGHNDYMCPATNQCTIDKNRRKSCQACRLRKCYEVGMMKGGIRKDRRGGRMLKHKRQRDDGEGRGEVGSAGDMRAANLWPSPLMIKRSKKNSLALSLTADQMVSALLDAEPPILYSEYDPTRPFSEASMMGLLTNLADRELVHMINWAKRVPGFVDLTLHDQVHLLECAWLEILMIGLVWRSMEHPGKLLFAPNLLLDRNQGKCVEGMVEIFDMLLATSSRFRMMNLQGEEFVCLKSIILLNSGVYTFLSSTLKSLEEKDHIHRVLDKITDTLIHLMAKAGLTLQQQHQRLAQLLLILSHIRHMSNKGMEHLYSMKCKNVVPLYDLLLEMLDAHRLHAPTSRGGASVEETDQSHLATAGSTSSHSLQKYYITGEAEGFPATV

[1] = biological target: T2, Estrogen receptor (Homo sapiens) (UniProt P03372); experiment: Antagonist activity at CMX-GAL4N fused human ERalpha expressed in HEK293 cells assessed as reduction in E2 induced response at 10 to 10^4 nM by luciferase reporter gene assay; type: cell-based
T2 sequence (whole entry): T1 sequence (P03372 whole entry)

SMILES	IC50 (Estrogen receptor)	Activity [1]
CCCC(CCC)(c1ccc(O)c(C)c1)c1ccc(O)c(O)c1	158 nM	–
CCCC(CCC)(c1ccc(OCCN(C)C)c(C)c1)c1ccc(O)c(O)c1	225 nM	–
CCCC(CCC)(c1ccc(O)c(C)c1)c1ccc(OC(C)=O)c(OC(C)=O)c1	–	Active
CCC(CC)(c1ccc(O)c(C)c1)c1ccc(O)c(O)c1	664 nM	–
CCCC(CCC)(c1ccc(O)c(C)c1)c1cc(C)c(O)c(O)c1	271 nM	–

Next, values leading:

IC50 (Estrogen receptor)	Activity [1]	SMILES
63.2 nM	–	CCCC(CCC)(c1ccc(O)cc1)c1ccc(O)c(O)c1
2.22 nM	–	CCCC(CCC)(c1ccc(O)c(C)c1)c1ccc(O)c(C)c1
154 nM	–	CCC(CC)(c1ccc(O)cc1)c1ccc(O)c(O)c1
134 nM	–	CCCC(CCC)(c1ccc(O)c(C)c1)c1ccc(OCCN(C)C)c(C)c1
